Like-named read-outs stand apart in the source and are kept apart here.
Tests used:
human P-gp [1] = target: T1, human P-gp (Homo sapiens, UniProt P08183); conditions: 2 μM inhibitor, LLC-GA5-COL150, after last sampling (3 h)
human P-gp [2] = target: T1, human P-gp; conditions: for effect on [14C]doxorubicin transport: LLC-GA5-COL150
P-gp = conditions: cited from earlier work
human P-gp [3] = target: T1, human P-gp
human P-gp [4] = target: T1, human P-gp; assay: Transcellular transport of PSC833 in LLC-PK1 and LLC-GA5-COL150 cells
[5] = clinical trials, cited from earlier work

T1 sequence (P08183 whole entry): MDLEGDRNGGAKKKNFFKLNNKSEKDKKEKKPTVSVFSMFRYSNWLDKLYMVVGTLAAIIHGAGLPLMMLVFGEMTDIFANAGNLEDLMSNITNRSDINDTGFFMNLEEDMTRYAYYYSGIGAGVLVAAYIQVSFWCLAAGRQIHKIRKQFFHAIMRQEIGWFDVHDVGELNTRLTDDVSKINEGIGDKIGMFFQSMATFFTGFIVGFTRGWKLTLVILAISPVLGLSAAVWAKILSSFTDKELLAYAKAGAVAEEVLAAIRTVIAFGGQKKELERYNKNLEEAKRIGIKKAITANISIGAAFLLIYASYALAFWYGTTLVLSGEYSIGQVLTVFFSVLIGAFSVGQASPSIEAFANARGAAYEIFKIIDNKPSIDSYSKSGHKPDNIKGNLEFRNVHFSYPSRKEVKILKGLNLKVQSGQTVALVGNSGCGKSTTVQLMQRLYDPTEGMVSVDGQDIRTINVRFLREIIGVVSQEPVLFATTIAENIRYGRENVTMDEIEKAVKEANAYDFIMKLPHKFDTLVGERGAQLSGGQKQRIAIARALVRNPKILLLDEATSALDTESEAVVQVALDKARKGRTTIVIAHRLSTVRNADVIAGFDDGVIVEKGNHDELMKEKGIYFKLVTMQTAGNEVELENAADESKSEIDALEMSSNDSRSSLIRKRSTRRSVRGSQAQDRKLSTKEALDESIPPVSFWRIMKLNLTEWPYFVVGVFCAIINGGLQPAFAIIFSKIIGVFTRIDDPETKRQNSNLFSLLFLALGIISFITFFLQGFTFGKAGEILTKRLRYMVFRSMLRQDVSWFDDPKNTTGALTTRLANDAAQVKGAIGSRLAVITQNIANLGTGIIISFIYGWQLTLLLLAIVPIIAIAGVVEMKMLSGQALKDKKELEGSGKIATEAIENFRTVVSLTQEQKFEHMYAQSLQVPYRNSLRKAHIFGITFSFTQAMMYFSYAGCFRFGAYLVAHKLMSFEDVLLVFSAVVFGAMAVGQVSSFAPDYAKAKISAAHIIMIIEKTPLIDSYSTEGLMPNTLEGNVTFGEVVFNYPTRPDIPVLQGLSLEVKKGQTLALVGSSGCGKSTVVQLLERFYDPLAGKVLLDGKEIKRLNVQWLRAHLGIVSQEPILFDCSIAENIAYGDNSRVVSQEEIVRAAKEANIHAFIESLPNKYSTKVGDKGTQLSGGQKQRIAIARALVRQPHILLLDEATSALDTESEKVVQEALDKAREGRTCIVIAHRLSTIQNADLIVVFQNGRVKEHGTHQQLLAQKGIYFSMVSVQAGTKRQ

intracellular accumulation of [3H]vinblastine (human P-gp [1]): approached the control level
effect on [14C]doxorubicin transport (human P-gp [2]; 0.1 μM inhibitor): little inhibitory effect
IC50 of PSC833 for [14C]doxorubicin transport as % of that of Cs-A (human P-gp [2]; Table I): 10%
effect on [14C]doxorubicin transport (human P-gp [2]; inhibitor concentrations greater than 0.5 μM): strong inhibitory effect
IC50 of PSC833 less than that of Cs-A for [14C]doxorubicin transport (human P-gp [2]; ratio of IC50 values, Table I): ~10 fold
effect on [3H]vinblastine transport (human P-gp [3]; 2 μM inhibitor, LLC-GA5-COL150): almost completely inhibited
IC50 of PSC833 for vinblastine transport as % of that of Cs-A (human P-gp [3]; Table I): 20%
IC50 of PSC833 less than that of Cs-A for [3H]vinblastine transport (human P-gp [3]; ratio of IC50 values, Table I): about 5 fold
transported amount in LLC-GA5-COL150 cells compared with LLC-PK1 cells (human P-gp [4]; 10 μM PSC833, 3 and 6 h, 37C, HPLC-UV): approximately the same
transport by P-gp (human P-gp [4]; LLC-GA5-COL150 vs LLC-PK1 monolayers, 10 μM, both directions): not transported
Compound: C/C=C/C[C@@H](C)C(=O)[C@H]1C(=O)N[C@@H](C(C)C)C(=O)N(C)CC(=O)N(C)[C@@H](CC(C)C)C(=O)N[C@@H](C(C)C)C(=O)N(C)[C@@H](CC(C)C)C(=O)N[C@@H](C)C(=O)N[C@H](C)C(=O)N(C)[C@@H](CC(C)C)C(=O)N(C)[C@@H](CC(C)C)C(=O)N(C)[C@@H](C(C)C)C(=O)N1C [PSC833, [3′‐keto‐Bmt1]‐Val2]‐cyclosporin]
more effective than Cs-A in displacing the photoactivatable cyclosporin analogue (P-gp): approximately 2.5 fold
concentrations at which the AUC of coadministered anticancer drugs increased [5]: 1000 to 2000 ng/mL
increase in the AUC of doxorubicin ([5]; combination therapy with PSC833 and doxorubicin): 20-199%
